In series [1] the test system is CNS cancer. The experiment in a line: NCI five-dose SRB assay, subpanel average. As to conditions: 48 h.
The test system of series [2] is colon cancer. The experiment in a line: NCI five-dose SRB assay, subpanel average. To be noted: 48 h. In general terms: Sulforhodamine B stains cellular protein and so reports cell mass.
Series [3] deals with breast cancer. The experiment in a line: NCI five-dose SRB assay, subpanel average. As to conditions: 48 h.
In series [4] the test system is ovarian cancer. The experiment in a line: NCI five-dose SRB assay, subpanel average. As to conditions: 48 h.
In series [5] the test system is renal cancer. The experiment in a line: NCI five-dose SRB assay, subpanel average. As to conditions: 48 h.
Series [6] deals with full panel of about 60 human tumor cell lines. The experiment in a line: NCI five-dose SRB assay, full panel mean. To be noted: 48 h.
Series [7] deals with leukemia. The experiment in a line: NCI five-dose SRB assay, subpanel average. To be noted: 48 h.
For series [8], the system named is OVCAR-4. The experiment in a line: NCI one-dose SRB growth assay. In kind it is cell-based. As to conditions: Homo sapiens; OVCAR-4 (Ovarian Cancer), 10^-5 M, 48 h; read-out: % Growth Inhibition (GI %). An outline of the steps: (§1)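 Read-out: sulforhodamine B protein-binding dye, measured spectrophotometrically, expressed as percent growth of treated versus untreated cells. Cultures received test compound at 10^-5M and were incubated 48 h.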

For series [9], the system named is PRMI-8226. The experiment in a line: NCI one-dose SRB growth assay. In kind it is cell-based. To be noted: Homo sapiens; PRMI-8226 (Leukemia), 10^-5 M, 48 h; read-out: % Growth Inhibition (GI %). Summed up: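 Growth percentage versus untreated controls was derived from SRB protein-dye absorbance after cells were incubated 48 h with test compound at a single 10^-5M dose.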

In series [10] the test system is MOLT-4. The experiment in a line: NCI one-dose SRB growth assay. It counts as cell-based. To be noted: Homo sapiens; MOLT-4 (Leukemia), 10^-5 M, 48 h; read-out: % Growth Inhibition (GI %). An outline of the steps: as §1
For series [11], the system named is CCRF-CEM. The experiment in a line: NCI one-dose SRB growth assay. To be noted: Homo sapiens; CCRF-CEM (Leukemia), 10^-5 M, 48 h; read-out: % Growth Inhibition (GI %). It counts as cell-based.
Series [12] has as its system NCI/ADR-RES. The experiment in a line: NCI one-dose SRB growth assay. It counts as cell-based. As to conditions: Homo sapiens; NCI/ADR-RES (Ovarian Cancer), 10^-5 M, 48 h; read-out: % Growth Inhibition (GI %). Summed up:
as §1

The subject of series [13] is SF-295. The experiment in a line: NCI one-dose SRB growth assay. As to conditions: Homo sapiens; SF-295 (CNS Cancer), 10^-5 M, 48 h; read-out: % Growth Inhibition (GI %). In kind it is cell-based. An outline of the steps:
as §1

Series [14] concerns UO-31. The experiment in a line: NCI one-dose SRB growth assay. As to conditions: Homo sapiens; UO-31 (Renal Cancer), 10^-5 M, 48 h; read-out: % Growth Inhibition (GI %). It counts as cell-based. Summed up: as §1
The subject of series [15] is 786-0. The experiment in a line: NCI one-dose SRB growth assay. To be noted: Homo sapiens; 786-0 (Renal Cancer), 10^-5 M, 48 h; read-out: % Growth Inhibition (GI %). It counts as cell-based. Summed up: as §1
In series [16] the test system is prostate cancer. The experiment in a line: NCI five-dose SRB assay, subpanel average. To be noted: 48 h.
For series [17], the system named is 60 human tumor cell line panel. The experiment in a line: NCI 60 cell line one-dose SRB primary anticancer assay. It counts as cell-based. To be noted: 60 cell lines assay in one dose, 10µM (title; head prints 10.0 mM), 48 h. Here is the method: A primary anticancer assay was performed for an approximately 60 human tumor cell line panel derived from nine neoplastic diseases, in accordance with the protocol of the Drug Evaluation Branch, National Cancer Institute, Bethesda, MD (Monks A. et al., J. Natl. Cancer Inst 1991, 83, 757-766; Boyd M.R. and Paull K.D., Drug. Dev. Res. 1995, 34, 91-109; Shoemaker R.H., Nat. Rev. Cancer 2006, 6, 813-823). Briefly, tested compounds were added to the culture at a single concentration (10^-5M), and the cultures were incubated for 48 h. End point determinations were made with a protein binding dye, sulforhodamine B (SRB). The results for each tested compound were reported as the growth percentage of the treated cells when compared to that of the untreated control cells. The percentage growth was evaluated spectrophotometrically versus controls not treated with test agents.

Where [18] appears, read: Homo sapiens, read-out: GI50 (median growth inhibitory).
The mark [19] stands for this setting: Homo sapiens, read-out: LC50 (median lethal).

SMILES strings stand for the structures.

Broadly, the GI50 is the concentration at which growth is held to half of that of the control. The term inhibition denotes the percentage by which the read-out fell short of the control. Take `O=c1[nH]cc(F)c(=O)[nH]1` [Compound 5-FU, 5-fluorouracil, reference compound]: the GI50 in series [1] (setting [18]) turned out to be 72.1 µM; in series [2] (setting [18]), 8.4 µM; in [3] (setting [18]), 76.4 µM; in series [4] (setting [18]), 61.4 µM; in [5] (setting [18]), 45.6 µM; in series [6] (Homo sapiens, read-out: GI50 MG-MID (Full panel mean-graph midpoint)), 22.6 µM. For the same compound, the GI50 was determined as 15.1 µM in [7] (setting [18]) and 22.7 µM in series [16] (setting [18]). Moreover, the CC50 is > 100 µM in series [1] (setting [19]); > 100 µM in series [2] (setting [19]); > 100 µM in series [3] (setting [19]); > 100 µM in series [4] (setting [19]); > 100 µM in [5] (setting [19]); > 100 µM in [6] (Homo sapiens, read-out: LC50 MG-MID (Full panel mean-graph midpoint)). Also, the CC50 in series [7] (setting [19]) and in series [16] (setting [19]) was > 100 µM throughout. Besides, the “TGI (total growth inhibitory)” value in [1] (average over CNS cancer subpanel, five concentrations) is listed as “c (Compounds showed values > 100µM)”; in series [2] (average over colon cancer subpanel, five concentrations) it was “c (Compounds showed values > 100µM)”; in [3] (average over breast cancer subpanel, five concentrations), “c (Compounds showed values > 100µM)”; in [4] (average over ovarian cancer subpanel, five concentrations), “c (Compounds showed values > 100µM)”; in series [5] (average over renal cancer subpanel, five concentrations), “c (Compounds showed values > 100µM)”; in series [7] (average over leukemia subpanel, five concentrations), “c (Compounds showed values > 100µM)”. The “TGI (total growth inhibitory)” value in series [16] (average over prostate cancer subpanel, five concentrations) was “c (Compounds showed values > 100µM)”. Further, the “TGI MG-MID (Full panel mean-graph midpoint)” value in [6] (full panel, five concentrations) is listed as “c (Compounds showed values > 100µM)”. For the same compound, the inhibition at 10 µM in series [8] is 59.4%; in series [9] it was 41.4%; in series [10] it was 43.1%; in [11], 57.1%; in series [12] it was 47.6%; in series [13], 69.1%. Also, the inhibition at 10 µM in [14] came to 41.3%; in series [15], 48.7%.

In the case of `CCn1cc(C(=O)O)c(=O)c2cc(F)c(N3CCN(S(=O)(=O)c4c(C)cc(C)cc4C)CC3)cc21` [Compound 6a], the inhibition at 10 µM in series [8] was < 10%; in [9] it was 35.9%; in [10] it was 24.1%; in [11] it was 18.2%; in [12], 15.2%; in series [13], 51.6%. Also, the inhibition at 10 µM is 66.9% in series [14]; < 10% in series [15]; 18.3% in series [17] (Homo sapiens, read-out: MGI % (Mean growth inhibition percentage)). The “PCE (Positive cytotoxic effect: ratio between number of cell lines with percentage growth inhibition from 10 to >100 and total number of cell lines)” value in series [17] is listed as 46/58. Besides, in [17], the “RGI % (Range of growth inhibition percentage)” value lay within 66.90 to 10.12%.
